Like-named read-outs stand apart in the source and are kept apart here.
Legend:
rat orexin 1 receptor = rat orexin 1 receptor (Rattus norvegicus, UniProt P56718); assay: Rat orexin 1 receptor radioligand binding (competitive, [3H]-SB674042, HEK293 cell preparations)
human orexin 1 receptor = human orexin 1 receptor (Homo sapiens (Human), UniProt O43613); assay: Human orexin 1 receptor radioligand binding (competitive, [3H]-SB674042, CHO cell preparations)
human orexin 2 receptor = human orexin 2 receptor (Homo sapiens (Human), UniProt O43614); assay: Human orexin 2 receptor radioligand binding (competitive, [3H]-EMPA, HEK293 cell preparations)
Sequence of human orexin 2 receptor (O43614 whole entry): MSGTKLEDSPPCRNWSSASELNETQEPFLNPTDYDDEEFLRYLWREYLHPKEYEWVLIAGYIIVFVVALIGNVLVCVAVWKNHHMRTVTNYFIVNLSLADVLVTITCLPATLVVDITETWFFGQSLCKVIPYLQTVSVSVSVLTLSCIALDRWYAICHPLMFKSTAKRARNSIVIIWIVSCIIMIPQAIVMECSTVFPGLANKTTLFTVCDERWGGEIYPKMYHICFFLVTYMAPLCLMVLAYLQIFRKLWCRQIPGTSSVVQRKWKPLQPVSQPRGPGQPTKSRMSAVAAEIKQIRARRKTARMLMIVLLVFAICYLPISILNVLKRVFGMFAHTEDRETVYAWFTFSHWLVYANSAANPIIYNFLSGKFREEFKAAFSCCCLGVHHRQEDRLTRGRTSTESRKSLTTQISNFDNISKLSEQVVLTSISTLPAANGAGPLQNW

[1] = human orexin 2 receptor, [3H]-EMPA competition binding, read-out: hOX2 Ki (nm)
[2] = human orexin 1 receptor, [3H]-SB674042 competition binding, read-out: hOX1 Ki (nm)

Sequence of human orexin 1 receptor (O43613 whole entry): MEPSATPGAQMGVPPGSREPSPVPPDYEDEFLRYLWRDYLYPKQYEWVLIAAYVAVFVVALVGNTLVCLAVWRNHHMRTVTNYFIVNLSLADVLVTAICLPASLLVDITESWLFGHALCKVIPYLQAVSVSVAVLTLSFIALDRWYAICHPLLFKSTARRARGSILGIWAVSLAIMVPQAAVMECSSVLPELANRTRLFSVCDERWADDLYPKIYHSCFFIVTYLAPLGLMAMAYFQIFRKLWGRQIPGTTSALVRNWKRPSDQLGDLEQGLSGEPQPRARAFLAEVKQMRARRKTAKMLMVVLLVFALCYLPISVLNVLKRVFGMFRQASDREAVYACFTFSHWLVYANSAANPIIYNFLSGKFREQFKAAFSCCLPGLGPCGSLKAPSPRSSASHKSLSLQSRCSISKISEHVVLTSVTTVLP

Compound	Ki (rat orexin 1 receptor; read-out: rOX1 Ki (nm))	Ki (human orexin 1 receptor; read-out: hOX1 Ki (nm))	Ki (human orexin 2 receptor; [1])	Ki (human orexin 1 receptor; [2])	Ki (rat orexin 1 receptor; rat orexin 1 receptor, [3H]-SB674042 competition binding, read-out: rOX1 Ki (nm))	Ki (rat orexin 1 receptor; rOX1 Ki (nm))	Ki (human orexin 1 receptor; hOX1 Ki (nm))	Ki (human orexin 2 receptor; hOX2 Ki (nm))
O=C(c1ccc(F)cc1-c1ncccn1)N1[C@@H]2CC[C@H]1[C@H](Nc1cnc(C(F)(F)F)cn1)C2 [Example 267, (4-fluoro-2-(pyrimidin-2-yl)phenyl)((1S,2R,4R)-2-((5-(trifluoromethyl)pyrazin-2-yl)amino)-7-azabicyclo[2.2.1]heptan-7-yl)methanone]	33 nM	61 nM	1700 nM					
O=C(c1cccc(F)c1-n1nccn1)N1[C@@H]2CC[C@H]1[C@H](Nc1ncc(C(F)(F)F)cn1)C2 [Example 269, (3-fluoro-2-(2H-1,2,3-triazol-2-yl)phenyl)((1S,2R,4R)-2-((5-(trifluoromethyl)pyrimidin-2-yl)amino)-7-azabicyclo[2.2.1]heptan-7-yl)methanone]	48 nM		1700 nM	111 nM				
O=C(c1cccc(F)c1-c1ncccn1)N1[C@@H]2CC[C@H]1[C@H](Nc1ncc(C(F)(F)F)cn1)C2 [Example 271, (3-fluoro-2-(pyrimidin-2-yl)phenyl)((1S,2R,4R)-2-((5-(trifluoromethyl)pyrimidin-2-yl)amino)-7-azabicyclo[2.2.1]heptan-7-yl)methanone]	41 nM	42 nM	2300 nM					
Cc1cccc(C(=O)N2[C@@H]3CC[C@H]2[C@H](Nc2ncc(C(F)(F)F)cn2)C3)c1-n1nccn1 [Example 272, (3-methyl-2-(2H-1,2,3-triazol-2-yl)phenyl)((1S,2R,4R)-2-((5-(trifluoromethyl)pyrimidin-2-yl)amino)-7-azabicyclo[2.2.1]heptan-7-yl)methanone]	21 nM	26 nM	742 nM					
Cc1cccc(C(=O)N2[C@@H]3CC[C@H]2[C@H](Nc2ncc(C(F)(F)F)cn2)C3)c1I [Example 276, (2-iodo-3-methylphenyl)((1S,2R,4R)-2-((5-(trifluoromethyl)pyrimidin-2-yl)amino)-7-azabicyclo[2.2.1]heptan-7-yl)methanone]		97 nM	2500 nM		133 nM			
Cc1cnc(N[C@@H]2C[C@H]3CC[C@@H]2N3C(=O)c2cccc(F)c2-c2ncccn2)cn1 [Example 278, (3-fluoro-2-(pyrimidin-2-yl)phenyl)((1S,2R,4R)-2-((5-methylpyrazin-2-yl)amino)-7-azabicyclo[2.2.1]heptan-7-yl)methanone]	87 nM	77 nM	934 nM					
O=C(c1cccc(F)c1-c1ncccn1)N1[C@@H]2CC[C@H]1[C@H](Nc1ccc(C(F)(F)F)cn1)C2 [Example 279, (3-fluoro-2-(pyrimidin-2-yl)phenyl)((1S,2R,4R)-2-((5-(trifluoromethyl)pyridin-2-yl)amino)-7-azabicyclo[2.2.1]heptan-7-yl)methanone]						15 nM	8 nM	1100 nM
O=C(c1ccc(F)cc1-c1ncccn1)N1[C@@H]2CC[C@H]1[C@H](Nc1ccc(C(F)(F)F)cn1)C2 [Example 280, (4-fluoro-2-(pyrimidin-2-yl)phenyl)((1S,2R,4R)-2-((5-(trifluoromethyl)pyridin-2-yl)amino)-7-azabicyclo[2.2.1]heptan-7-yl)methanone]	39 nM	37 nM	1300 nM					
O=C(c1cccc(F)c1-c1ncco1)N1[C@@H]2CC[C@H]1[C@H](Nc1ncc(C(F)(F)F)cn1)C2 [Example 284, (3-fluoro-2-(oxazol-2-yl)phenyl)((1S,2R,4R)-2-((5-(trifluoromethyl)pyrimidin-2-yl)amino)-7-azabicyclo[2.2.1]heptan-7-yl)methanone]	29 nM	27 nM	1700 nM					
O=C(c1ncccc1-n1nccn1)N1[C@@H]2CC[C@H]1[C@H](Nc1cnc(C(F)(F)F)cn1)C2 [Example 288, (3-(2H-1,2,3-triazol-2-yl)pyridin-2-yl)((1S,2R,4R)-2-((5-(trifluoromethyl)pyrazin-2-yl)amino)-7-azabicyclo[2.2.1]heptan-7-yl)methanone]	94 nM		1900 nM	128 nM				

From US9062078B2, “Substituted 7-azabicyles and their use as orexin receptor modulators” (priority 2013, dated 2015)
